Blank lines part the entries; values can stand above or below the compound they belong to.
Tests used:
[1] = tested on: N. benthamiana plants; assay: Transient hIL-12 expression after vacuum co-infiltration, Western blot and densitometry; assay type: in vivo; conditions: for increase in hIL-12 expression (semi-quantitative densitometry): 20 mM AsA in induction medium, vs construct alone
Method: Transient infiltration was done according Medrano et al (2009), with some modifications as follows. Briefly, an A. tumefaciens inoculum integrated with the binary vector pBIB-Kan encoding IL-12 was cultured under standard conditions for 2 days at 28° C. The bacterial cultures were centrifuged and resuspended to a final OD600 of 0.2-0.8, in 400 mL of a induction medium (“IM”; 0.5× Murashige and Skoog basal medium salts, 1× MS vitamins, 5% sucrose, 1× benzylaminopurine, 200 μM acetosyringone, pH 5.5). The cultures were incubated in 1M for ≥3 h at 28° C. Vacuum infiltration of 4-5-week-old N. benthamiana was accomplished by inverting a plant into a 400 mL glass beaker containing IM, ensuring that all leaves of the plant are immersed in the media. The beaker was placed in a vacuum desiccator unit (240-mm inner diameter) and using a vacuum pump, maximum pressure (˜25 in. Hg) was applied for 2 min and then quickly released. Additional plants were subject to infiltration using the same construct/antioxidant culture, or replaced with a new beaker of IM containing another construct/antioxidant culture. A single IM culture was used for infiltrating typically 3 but up to 10 independent plants with no adverse effect on the amount of transgene product expressed and presence of exogenously introduced antioxidant in planta respectively. Infiltrated plants were returned to the environmental chamber at conditions established previously during plant growth. […]
(§1) Vitamin E and vitamin K were solubilized in chloroform and kept on amber tube on ice. The final concentration range of vitamins E and K tested were 5-100 μM.
(§2) Samples were resolved by SDS-PAGE (run under denaturing or reducing conditions) and Western immunoblotting analysis performed. For hIL-12 detection, primary antibody anti-human IL-12 (1:1000 v/v; R&D Systems) and secondary antibody anti-goat IgG-alkaline phosphatase conjugated (1:10,000 v/v; BIORAD®) was used. For chIL-12 detection, anti-6×His (C-term)-alkaline phosphatase conjugated (1:2000 v/v; Invitrogen) was used. Detection on immunoblots was carried out using the CDP-Star chemiluminescent substrate for alkaline phosphatase (Roche, Indianapolis, Ind.) and NitroBlock. Enhancer II (Tropix Inc., Bedford, Mass.) in accordance with manufacturers' procedures. Densitometry using the BIORAD® VERSDOC4000™ and QUANT-1® software package was employed and relative protein expression was determined in order to evaluate the effect of antioxidants on plant-made protein expression.

[2] = tested on: N. benthamiana plants; assay: Transient chIL-12 expression after vacuum co-infiltration, anti-his Western blot and densitometry; assay type: in vivo
Method: Transient infiltration was done according Medrano et al (2009), with some modifications as follows. Briefly, an A. tumefaciens inoculum integrated with the binary vector pBIB-Kan encoding IL-12 was cultured under standard conditions for 2 days at 28° C. The bacterial cultures were centrifuged and resuspended to a final OD600 of 0.2-0.8, in 400 mL of a induction medium (“IM”; 0.5× Murashige and Skoog basal medium salts, 1× MS vitamins, 5% sucrose, 1× benzylaminopurine, 200 μM acetosyringone, pH 5.5). The cultures were incubated in 1M for ≥3 h at 28° C. Vacuum infiltration of 4-5-week-old N. benthamiana was accomplished by inverting a plant into a 400 mL glass beaker containing IM, ensuring that all leaves of the plant are immersed in the media. The beaker was placed in a vacuum desiccator unit (240-mm inner diameter) and using a vacuum pump, maximum pressure (˜25 in. Hg) was applied for 2 min and then quickly released. Additional plants were subject to infiltration using the same construct/antioxidant culture, or replaced with a new beaker of IM containing another construct/antioxidant culture. A single IM culture was used for infiltrating typically 3 but up to 10 independent plants with no adverse effect on the amount of transgene product expressed and presence of exogenously introduced antioxidant in planta respectively. Infiltrated plants were returned to the environmental chamber at conditions established previously during plant growth. In the case of both model transgene constructs, leaves were harvested from plants at 48 h post-infiltration and stored at −80° C. for subsequent analyses.
Vitamin E and vitamin K were solubilized in chloroform and kept on amber tube on ice. […]
(§3) Samples were resolved by SDS-PAGE (run under denaturing or reducing conditions) and Western immunoblotting analysis performed. […] Densitometry using the BIORAD® VERSDOC4000™ and QUANT-1® software package was employed and relative protein expression was determined in order to evaluate the effect of antioxidants on plant-made protein expression.

[3] = tested on: plant transient bioproduction system; assay: Transient expression of a 94 kDa human glycoprotein, Western blot; assay type: in vivo; conditions: 20 mM co-infiltrated AsA, 72 hrs post-infiltration
Method: Transient infiltration was done according Medrano et al (2009), with some modifications as follows. Briefly, an A. tumefaciens inoculum integrated with the binary vector pBIB-Kan encoding IL-12 was cultured under standard conditions for 2 days at 28° C. The bacterial cultures were centrifuged and resuspended to a final OD600 of 0.2-0.8, in 400 mL of a induction medium (“IM”; 0.5× Murashige and Skoog basal medium salts, 1× MS vitamins, 5% sucrose, 1× benzylaminopurine, 200 μM acetosyringone, pH 5.5). The cultures were incubated in 1M for ≥3 h at 28° C. Vacuum infiltration of 4-5-week-old N. benthamiana was accomplished by inverting a plant into a 400 mL glass beaker containing IM, ensuring that all leaves of the plant are immersed in the media. The beaker was placed in a vacuum desiccator unit (240-mm inner diameter) and using a vacuum pump, maximum pressure (˜25 in. Hg) was applied for 2 min and then quickly released. […]
as §3

[4] = tested on: transient system host plants; assay: Foliar ascorbate content of infiltrated host plants, ascorbate oxidase assay; assay type: in vivo, N. benthamiana; conditions: increasing infiltrated AsA
Method: Leaf tissue ground in the presence of liquid nitrogen with mortar/pestle was extracted. The foliar vitamin C content was determined by the ascorbate oxidase assay as previously described (Lorence et al., 2004). Briefly, tissue samples were harvested and immediately frozen in liquid nitrogen and stored at -80° C. till analysis. Samples were ground in 6% (w/v) meta-phosphoric acid, and centrifuged at 15,000×g for 10 min. Reduced vitamin C (a.k.a. ascorbate) was determined by measuring the decline in […] (extinction coefficient of 14.3 cm^-1 mM^-1) after addition of 1 unit of ascorbate oxidase (Sigma) to 1 mL of the reaction mix including tissue extract and 100 mM potassium phosphate (pH 6.9). […] Foliar ascorbate content was determined by a microplate reader-based method described herein. […] Reduced ascorbate was determined in a 300 μL reaction in triplicates by adding 275 μL of 0.1M of potassium phosphate buffer pH 6.9 into a 96-well plate (UV Flat Bottom Microplate, Thermo Scientific) containing 15 μL of sample supernatant. The mix was measured at […] and recorded. The decline in […] was measured after addition of 10 μL (1 U) of ascorbate oxidase (final concentration 0.0033 units of ascorbate oxidase, Sigma). […] The mix was measured at […] and recorded. […] […] was measure using a plate reader (model Power Wave XS, software KC Junior, Biotek).

[5] = tested on: H2O2 in leaves; assay: In situ H2O2 detection in leaves, DAB staining; assay type: in vivo, N. benthamiana
Description: Staining for H2O2 in leaves which correlates with the presence of reactive oxygen species (ROS) is detected by an endogenous peroxidase-dependent staining procedure, using 3,3-diaminobenzidine (DAB). This assay provides a comparative in situ measure of the ROS levels in planta (Thordal-Christensen et al., 1997).

[6] = tested on: host plants; assay: Toxicity of infiltrated antioxidant to the host plant (necrosis); conditions: for toxicity to the plant: 100 μM
Method: Transient infiltration was done according Medrano et al (2009), with some modifications as follows. Briefly, an A. tumefaciens inoculum integrated with the binary vector pBIB-Kan encoding IL-12 was cultured under standard conditions for 2 days at 28° C. The bacterial cultures were centrifuged and resuspended to a final OD600 of 0.2-0.8, in 400 mL of a induction medium (“IM”; 0.5× Murashige and Skoog basal medium salts, 1× MS vitamins, 5% sucrose, 1× benzylaminopurine, 200 μM acetosyringone, pH 5.5). The cultures were incubated in 1M for ≥3 h at 28° C. Vacuum infiltration of 4-5-week-old N. benthamiana was accomplished by inverting a plant into a 400 mL glass beaker containing IM, ensuring that all leaves of the plant are immersed in the media. The beaker was placed in a vacuum desiccator unit (240-mm inner diameter) and using a vacuum pump, maximum pressure (˜25 in. Hg) was applied for 2 min and then quickly released. Additional plants were subject to infiltration using the same construct/antioxidant culture, or replaced with a new beaker of IM containing another construct/antioxidant culture. […] Infiltrated plants were returned to the environmental chamber at conditions established previously during plant growth. In the case of both model transgene constructs, leaves were harvested from plants at 48 h post-infiltration and stored at −80° C. for subsequent analyses.
as §1

[7] = tested on: N. benthamiana leaves; assay: Recovery of purified hIL-12, heterodimer-specific hIL-12 ELISA; assay type: in vivo; conditions: 20 mM exogenously added AsA vs no antioxidant
Method: The amount of hIL-12 expressed in N. benthamiana leaves in the presence or absence of modified antioxidants levels during bioproduction was quantitated using a commercially available heterodimer-specific hIL-12 enzyme-linked immunoabsorbant assay (ELISA) (R&D Systems). To assay hIL-12, leaves were ground in PBS buffer (137 mM NaCl, 2.7 mM KCl, 10.1 mM Na2HPO4, and […] KH2PO4 pH 7.0) at a 1:2 (w/v) ratio and supernatant extracts were analyzed by the ELISA. For hIL-12 detection, the ELISA used monoclonal antibodies specific for hIL-12 p70 for capture (0.2 μg/mL) and biotinylated anti-human IL-12 antibody for detection (4 μg/mL). Streptavidin-HRP (1:200 v/v) was used for chemiluminescence and 3,3′,5,5′-tetramethylbenzidine (TMB; KPL) as a substrate for detection. Densitometry using the BIORAD® VERSDOC4000™ and QUANT-1® software package was employed and was established relative protein expression in order to evaluate the impact of antioxidants on its expression in plants.

[8] = tested on: Stable N. tabacum lines; assay: hIL-12 expression in stable transgenic lines after vacuum infiltration, Western blot; assay type: in vivo; conditions: AsA in IM media, leaves 24 and 48 h
Method: as §2
This finding further supports the concept that increasing the antioxidant capacity of the host plant enhances the overall biosynthesis of the plant in serving as a factory for recombinant protein production.

in planta foliar AsA levels [4]: dose-dependent increase
Compound: O=C1O[C@H]([C@@H](O)CO)C(O)=C1O [AsA, ascorbic acid]
hIL-12 protein expression levels, dose response ([1]; 0, 20, 40, 60 mM AsA): dose dependent increase
increase in hIL-12 expression (semi-quantitative densitometry) [1]: 25-30%
increase in hIL-12 expression (semi-quantitative densitometry) ([1]; listed as vitamin C): ~25%
monomeric, single-chain hIL12 on Western blot ([1]; 20 mM co-infiltrated AsA vs construct alone): significant increase
oligomer formation of hIL-12 ([1]; 48 and 72 h post-infiltration, vs 0 mM AsA): abrogates oligomer formation of hIL-12
time hIL-12 is sustained in planta ([1]; co-infiltrated AsA vs 0 mM AsA): up to 72 h
effective dose range for recombinant protein production ([1]; plant transient infiltration system): 20 to 60 mM
increase in chIL-12 protein expression ([2]; 20 mM AsA, 48 h post-infiltration, on average): ~3 fold
stable accumulation of 94 kDa human glycoprotein [3]: enhanced
H2O2 staining (DAB) ([5]; 80 mM AsA): some staining
H2O2 staining (DAB) ([5]; 100 mM AsA): clearly detectable
H2O2 staining (DAB) ([5]; 20 to 60 mM AsA): minimal
effect on leaves/cells of host plants ([6]; 80 mM): began to show signs of necrosis
effect on leaves/cells of host plants ([6]; 80 mM, listed as vitamin C): detrimental
effect on leaves/cells of host plants ([6]; 100 mM): significant necrotic lesions
effect on leaves/cells of host plants ([6]; 100 mM, listed as vitamin C): detrimental
more purified hIL12 product recovered (ELISA) [7]: 20-25%
hIL-12 protein levels in stable transgenic plants [8]: increasing the overall expression of hIL-12 protein levels

Compound: vitamin E
transient hIL-12 expression ([1]; vitamin E alone): no effect on expression
chIL12 protein production at higher concentrations ([2]; 50-100 μM): reduced improvement in protein production
concentration with greatest impact in transient chIL12 protein expression ([2]; dose-response 5-100 mM): 20 µM
toxicity to the plant [6]: appeared to be toxic

Compound: vitamin K
toxicity to the plant [6]: detrimental
